In article PMC3177597 (Bioorganic & medicinal chemistry letters, 2009):

Experiments:
[1] = tested on: mGluRs 1, 2, 3, 4, 7 and 8; assay: Selectivity versus other mGluRs
[2] = biological target: MPEP allosteric binding site on mGluR5 (Rattus norvegicus, UniProt P31424); assay: Displacement of [3H]3-methoxy-5-
Sequence of MPEP allosteric binding site on mGluR5 (P31424 21-1203): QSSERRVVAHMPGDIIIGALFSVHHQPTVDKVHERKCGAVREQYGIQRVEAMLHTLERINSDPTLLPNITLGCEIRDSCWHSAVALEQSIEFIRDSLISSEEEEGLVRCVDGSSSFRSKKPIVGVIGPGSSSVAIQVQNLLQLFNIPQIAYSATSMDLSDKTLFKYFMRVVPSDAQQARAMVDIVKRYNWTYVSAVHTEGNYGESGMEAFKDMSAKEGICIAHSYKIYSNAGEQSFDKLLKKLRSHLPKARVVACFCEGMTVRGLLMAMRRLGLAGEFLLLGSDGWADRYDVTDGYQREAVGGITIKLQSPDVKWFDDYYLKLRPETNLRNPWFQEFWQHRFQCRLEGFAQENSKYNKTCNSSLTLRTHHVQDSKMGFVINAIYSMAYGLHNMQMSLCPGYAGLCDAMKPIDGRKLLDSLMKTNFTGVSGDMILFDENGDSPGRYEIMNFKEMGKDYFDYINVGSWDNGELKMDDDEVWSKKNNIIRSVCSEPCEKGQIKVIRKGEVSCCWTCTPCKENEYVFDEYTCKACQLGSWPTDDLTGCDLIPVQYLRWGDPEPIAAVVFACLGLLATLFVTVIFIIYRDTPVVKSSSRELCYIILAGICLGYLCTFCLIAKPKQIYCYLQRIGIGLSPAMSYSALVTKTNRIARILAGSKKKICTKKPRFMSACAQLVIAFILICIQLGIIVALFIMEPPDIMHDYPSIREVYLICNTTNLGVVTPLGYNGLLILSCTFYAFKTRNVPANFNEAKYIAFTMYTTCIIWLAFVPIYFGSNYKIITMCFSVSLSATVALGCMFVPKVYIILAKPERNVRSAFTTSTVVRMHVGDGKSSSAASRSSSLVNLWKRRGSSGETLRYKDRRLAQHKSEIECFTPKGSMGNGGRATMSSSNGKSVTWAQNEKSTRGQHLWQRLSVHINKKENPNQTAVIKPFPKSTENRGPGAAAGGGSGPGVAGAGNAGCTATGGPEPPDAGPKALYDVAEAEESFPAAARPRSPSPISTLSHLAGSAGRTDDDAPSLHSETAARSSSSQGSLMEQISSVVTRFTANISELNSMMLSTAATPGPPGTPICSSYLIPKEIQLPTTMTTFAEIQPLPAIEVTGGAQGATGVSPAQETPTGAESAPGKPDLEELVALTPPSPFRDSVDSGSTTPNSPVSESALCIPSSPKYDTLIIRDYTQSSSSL

Ki [2] | Compound | selectivity versus mGluRs 1, 2, 3, 4, 7 and 8 [1]
1100 nM | COc1ccccc1C(=O)Nc1cccc(NC(=O)c2cccc(Cl)c2)c1 [compound 8] | selective
319 nM | O=C(Nc1ccccc1O)c1cccc(N2C(=O)c3ccccc3C2=O)c1 [compound 9, 3-(phthalimidyl)-N-(2-hydroxyphenyl)benzamide] | selective
